{"source": "ChEMBL document CHEMBL1201862", "about": "“PubChem BioAssay data set” (2004)", "key": {"[1]": {"assay": "loss of viability in HepG2 cells – cell-based, CellTiter-Glo, cherry-picked, cytotoxicity control for Shn3 inhibitor project, dose response (AID 624134)", "assay_type": "functional"}, "[2]": {"assay": "reduction of Shn3 3'UTR-driven luciferase in osteoblasts – cell-based, Clone20 osteoblasts, firefly luciferase, cherry-picked, dose response (AID 624132)", "assay_type": "functional"}, "[3]": {"assay": "non-specific 3'UTR reporter inhibition in Clone20-Shn3RL – cell-based, Renilla luciferase, cherry-picked, counter-screen for Shn3 inhibitor project, dose response (AID 624133)", "assay_type": "functional"}, "[4]": {"target": "T1, Ubiquitin-conjugating enzyme E2 N (Homo sapiens, UniProt P61088)", "T1 sequence (P61088 whole entry)": "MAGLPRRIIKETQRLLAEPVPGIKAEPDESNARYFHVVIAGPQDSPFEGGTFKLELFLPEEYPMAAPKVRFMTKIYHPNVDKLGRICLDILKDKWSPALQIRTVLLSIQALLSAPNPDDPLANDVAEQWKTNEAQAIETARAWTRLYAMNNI", "assay_type": "functional"}, "[5]": {"assay": "microbe, parasite or virus in culture", "assay_type": "functional", "conditions": "Mycobacterium tuberculosis"}, "[6]": {"target": "T2, Polyadenylate-binding protein 1 (Homo sapiens, UniProt P11940)", "T2 sequence (P11940 whole entry)": "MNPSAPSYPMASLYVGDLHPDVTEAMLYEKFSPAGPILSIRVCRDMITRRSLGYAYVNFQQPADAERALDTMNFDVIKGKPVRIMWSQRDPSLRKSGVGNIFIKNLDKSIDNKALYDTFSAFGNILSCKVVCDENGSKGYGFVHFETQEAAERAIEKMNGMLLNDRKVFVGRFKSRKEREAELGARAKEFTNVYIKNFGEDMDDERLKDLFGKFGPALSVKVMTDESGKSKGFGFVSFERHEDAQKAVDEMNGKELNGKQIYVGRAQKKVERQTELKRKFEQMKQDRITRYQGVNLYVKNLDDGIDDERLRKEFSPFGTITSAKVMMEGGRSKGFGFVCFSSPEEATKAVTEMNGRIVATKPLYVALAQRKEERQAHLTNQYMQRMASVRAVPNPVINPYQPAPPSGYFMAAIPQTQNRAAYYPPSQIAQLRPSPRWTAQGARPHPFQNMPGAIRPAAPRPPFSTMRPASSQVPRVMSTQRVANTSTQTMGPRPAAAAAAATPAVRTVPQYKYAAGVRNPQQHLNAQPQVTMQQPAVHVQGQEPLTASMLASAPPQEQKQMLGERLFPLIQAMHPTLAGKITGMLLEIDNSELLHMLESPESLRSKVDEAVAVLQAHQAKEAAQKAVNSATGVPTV", "assay": "MLLE binding blockers, Cy5 peptide tracer – biochemical, fluorescence polarization, Cy5-PAM2 peptide, secondary, miRNA deadenylation inhibitor project, dose response (AID 602260)", "assay_type": "functional", "conditions": "read-out: IC50_Mean"}, "[7]": {"target": "T2, Polyadenylate-binding protein 1", "assay": "MLLE domain peptide-binding blockers, IC50 – biochemical, fluorescence polarization, FITC-PAM2 peptide, dose response (AID 602259)", "assay_type": "functional", "conditions": "read-out: IC50_Mean"}, "INS1": {"system": "INS1", "assay": "INS-1E survival protection against cytokine death – cell-based, luminescence, retest, dose response (AID 449756);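 further: cell death triggered by IL-1 beta plus TNF-alpha plus IFN-gamma mixture; protective hits raise ATP signal compared with cytokine alone wells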", "assay_type": "functional", "conditions": "Rattus norvegicus"}, "cells [8]": {"assay": "cells", "assay_type": "functional, cell-based"}, "cells [9]": {"assay": "cells", "assay_type": "functional, cell-based", "remark": "listed apart in the source"}, "HEK293": {"system": "HEK293", "assay": "EBV LMP1 TES2 canonical NF-kB signalling blockers – cell-based, HEK293, luciferase, cherry-pick, dose response (AID 588343)", "assay_type": "functional", "conditions": "Homo sapiens"}, "Fatty acid synthase [10]": {"target": "T3, Fatty acid synthase (Homo sapiens, UniProt P49327)", "T3 sequence (P49327 whole entry)": "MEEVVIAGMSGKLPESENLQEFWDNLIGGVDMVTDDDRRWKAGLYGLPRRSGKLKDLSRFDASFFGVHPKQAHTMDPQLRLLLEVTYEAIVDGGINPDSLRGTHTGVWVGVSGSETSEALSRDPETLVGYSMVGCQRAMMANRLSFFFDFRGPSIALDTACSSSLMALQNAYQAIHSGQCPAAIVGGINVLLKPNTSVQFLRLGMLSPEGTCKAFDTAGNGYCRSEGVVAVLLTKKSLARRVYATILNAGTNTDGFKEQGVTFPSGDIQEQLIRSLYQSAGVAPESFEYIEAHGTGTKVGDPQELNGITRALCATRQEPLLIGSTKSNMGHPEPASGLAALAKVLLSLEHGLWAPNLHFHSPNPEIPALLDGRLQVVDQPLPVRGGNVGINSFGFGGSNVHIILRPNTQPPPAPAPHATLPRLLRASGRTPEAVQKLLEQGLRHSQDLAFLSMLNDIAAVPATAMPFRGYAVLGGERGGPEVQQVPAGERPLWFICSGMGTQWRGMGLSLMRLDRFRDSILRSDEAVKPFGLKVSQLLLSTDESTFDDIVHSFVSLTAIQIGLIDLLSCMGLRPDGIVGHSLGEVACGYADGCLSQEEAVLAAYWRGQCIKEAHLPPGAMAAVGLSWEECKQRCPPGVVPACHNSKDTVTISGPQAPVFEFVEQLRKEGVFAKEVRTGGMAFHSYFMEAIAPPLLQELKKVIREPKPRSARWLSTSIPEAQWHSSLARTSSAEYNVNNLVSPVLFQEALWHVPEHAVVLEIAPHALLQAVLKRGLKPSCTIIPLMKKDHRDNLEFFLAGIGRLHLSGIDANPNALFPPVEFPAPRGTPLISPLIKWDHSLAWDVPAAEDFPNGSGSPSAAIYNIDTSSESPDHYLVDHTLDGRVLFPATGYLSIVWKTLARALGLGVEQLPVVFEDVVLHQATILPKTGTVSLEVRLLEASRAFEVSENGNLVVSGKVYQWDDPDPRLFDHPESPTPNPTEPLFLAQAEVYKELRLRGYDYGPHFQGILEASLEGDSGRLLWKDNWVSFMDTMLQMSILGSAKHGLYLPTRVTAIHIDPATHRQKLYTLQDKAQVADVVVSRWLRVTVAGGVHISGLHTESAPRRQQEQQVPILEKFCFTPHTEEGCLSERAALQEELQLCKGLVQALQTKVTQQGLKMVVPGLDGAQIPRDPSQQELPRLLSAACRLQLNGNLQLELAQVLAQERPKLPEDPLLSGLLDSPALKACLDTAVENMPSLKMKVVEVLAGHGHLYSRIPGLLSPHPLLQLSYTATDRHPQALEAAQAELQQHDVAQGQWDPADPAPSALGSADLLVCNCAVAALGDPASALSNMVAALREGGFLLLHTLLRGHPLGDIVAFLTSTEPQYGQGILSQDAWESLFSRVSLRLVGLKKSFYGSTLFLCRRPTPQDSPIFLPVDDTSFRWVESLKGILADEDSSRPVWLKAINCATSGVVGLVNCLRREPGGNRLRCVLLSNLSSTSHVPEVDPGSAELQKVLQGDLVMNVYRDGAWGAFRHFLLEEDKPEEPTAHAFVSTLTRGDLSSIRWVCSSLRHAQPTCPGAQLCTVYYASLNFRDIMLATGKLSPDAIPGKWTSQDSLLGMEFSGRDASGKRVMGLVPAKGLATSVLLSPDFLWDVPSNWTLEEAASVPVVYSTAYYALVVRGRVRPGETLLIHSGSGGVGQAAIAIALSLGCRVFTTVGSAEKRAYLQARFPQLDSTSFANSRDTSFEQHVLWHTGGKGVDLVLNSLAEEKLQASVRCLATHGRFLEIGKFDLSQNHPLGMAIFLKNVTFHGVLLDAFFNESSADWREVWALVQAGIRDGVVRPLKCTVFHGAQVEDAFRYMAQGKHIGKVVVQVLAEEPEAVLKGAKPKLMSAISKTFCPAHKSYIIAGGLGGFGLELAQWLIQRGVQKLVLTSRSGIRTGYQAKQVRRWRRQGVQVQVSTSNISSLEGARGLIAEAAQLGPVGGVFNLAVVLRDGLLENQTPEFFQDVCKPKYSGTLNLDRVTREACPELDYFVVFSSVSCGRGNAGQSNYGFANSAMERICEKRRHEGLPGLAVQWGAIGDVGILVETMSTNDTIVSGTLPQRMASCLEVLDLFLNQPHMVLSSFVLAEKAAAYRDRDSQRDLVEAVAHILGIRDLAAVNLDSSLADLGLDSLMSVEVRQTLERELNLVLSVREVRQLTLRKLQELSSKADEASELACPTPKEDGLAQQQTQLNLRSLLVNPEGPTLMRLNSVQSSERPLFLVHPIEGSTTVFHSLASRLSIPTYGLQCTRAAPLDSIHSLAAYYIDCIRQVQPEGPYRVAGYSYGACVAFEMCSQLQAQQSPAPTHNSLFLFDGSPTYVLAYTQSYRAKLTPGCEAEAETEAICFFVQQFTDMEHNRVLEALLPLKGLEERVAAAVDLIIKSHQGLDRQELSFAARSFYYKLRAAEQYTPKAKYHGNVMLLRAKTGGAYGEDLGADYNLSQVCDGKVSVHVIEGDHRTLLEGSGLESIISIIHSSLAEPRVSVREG", "assay": "inhibition of human FAS-TE enzyme activity – biochemical, endpoint fluorescence intensity, uHTS hits, dose response (AID 624327);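 further: fluorescence from hydrolysis of an O-methyl fluorescein acyl ester substrate by the enzyme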", "assay_type": "functional"}, "Fatty acid synthase [11]": {"target": "T3, Fatty acid synthase", "assay": "inhibition of human FAS-TE enzyme activity – biochemical, kinetic fluorescence intensity, dose response (AID 624326);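 further: rate of fluorescence rise from hydrolysis of a fluorogenic O-methyl fluorescein ester substrate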", "assay_type": "functional"}, "[12]": {"assay": "HEK-293T viability loss after treatment – luminescence, T-cell screen hits, cytotoxicity control for TCR NF-kB inhibitor project, dose response (AID 489026);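 further: cells exposed to compound about 14 hours before the viability readout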", "assay_type": "functional, cell-based"}, "[13]": {"target": "T4, Calpain-2 catalytic subunit (Sus scrofa, UniProt P43367)", "T4 sequence (P43367 whole entry)": "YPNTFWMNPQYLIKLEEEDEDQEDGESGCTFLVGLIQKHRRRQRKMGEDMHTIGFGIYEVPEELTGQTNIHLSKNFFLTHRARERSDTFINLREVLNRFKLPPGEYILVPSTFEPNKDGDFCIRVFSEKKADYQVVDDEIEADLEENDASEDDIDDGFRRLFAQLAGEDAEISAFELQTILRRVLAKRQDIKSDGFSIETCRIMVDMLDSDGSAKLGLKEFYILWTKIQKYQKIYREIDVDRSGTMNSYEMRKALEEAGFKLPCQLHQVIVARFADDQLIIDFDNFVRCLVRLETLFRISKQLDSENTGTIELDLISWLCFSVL", "assay": "m-calpain protease blockers, concentration series – biochemical, fluorogenic peptide substrate, dose response (AID 1420)", "assay_type": "functional"}, "cells [14]": {"assay": "cells"}, "[15]": {"target": "FAD-linked sulfhydryl oxidase ALR (Homo sapiens, UniProt P55789)", "sequence (P55789 whole entry)": "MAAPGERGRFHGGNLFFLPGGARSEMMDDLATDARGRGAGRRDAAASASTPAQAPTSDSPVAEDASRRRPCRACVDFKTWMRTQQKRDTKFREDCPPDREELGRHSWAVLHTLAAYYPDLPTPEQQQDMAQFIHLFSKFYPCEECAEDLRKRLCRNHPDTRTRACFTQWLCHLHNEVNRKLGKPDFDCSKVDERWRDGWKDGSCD", "assay": "ALR-catalysed DTT oxidation blockers – biochemical, H2O2 detection, luminescence, cherry-pick, dose response (AID 493248)"}, "Vero": {"system": "Vero", "assay": "cells", "assay_type": "functional", "conditions": "Chlorocebus sabaeus"}, "[16]": {"assay": "blockers of HIV-1 ZM109 envelope-driven cell-cell fusion – HeLa effector, CEM target cells, luciferase, cherry-pick, dose response (AID 652058)", "assay_type": "functional, cell-based"}, "[17]": {"assay": "off-target signal loss in HeLa-CEM21 co-culture – HeLa F-luc CTL cells, cherry-picked, counter-screen for HIV-1 Env fusion inhibitor project, dose response (AID 652040);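 further: potency for signal decrease marking cytotoxic or nonspecific inhibition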", "assay_type": "functional, cell-based"}, "[18]": {"assay": "HIV-1 AD8 envelope cell-cell fusion blockers – cherry-pick, dose response (AID 652062);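 further: potency is for inhibitors of fusion seen as a drop in luminescence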", "assay_type": "functional, cell-based"}, "[19]": {"assay": "blockers of HIV-1 envelope-mediated cell-cell fusion – cherry-pick, dose response (AID 652057)", "assay_type": "functional, cell-based"}, "[20]": {"system": "Streptococcus sp. 'group A'", "assay": "Streptococcus pyogenes SK(-)GAS viability under kanamycin – luminescence, BacTiterGlo, confirmation, counter-screen for streptokinase expression inhibitor project, dose response (AID 1900)", "assay_type": "functional, organism-based"}, "Streptococcus": {"system": "Streptococcus", "assay": "GAS UMAA2166 growth inhibition – luminescence, BacTiterGlo, counter-screen for streptokinase expression inhibitor project, dose response (AID 1915);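 further: potency for reduction of bacterial viability or growth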", "assay_type": "functional, organism-based"}}, "note": "Active and inactive are the calls of the source.", "data": [{"smiles": "CCOc1ccc(CCN2C(=S)N([C@@H](CC(C)C)CN3CCCC3CN3C(=S)NC[C@@H]3Cc3ccc(O)cc3)C[C@@H]2Cc2ccc(O)cc2)cc1", "note": "(some centres not stated)", "values": [{"measurement": "AC50", "setting": "[1]", "result": "53.9 µM (active)"}, {"measurement": "AC50", "setting": "[2]", "result": "11.5 µM (active)"}, {"measurement": "AC50", "setting": "[3]", "result": "6.52 µM (active)"}]}, {"smiles": "COc1ccc(N(C(=O)c2snc(C(N)=O)c2N)C(C(=O)NC2CCCC2)c2cccs2)cc1OC", "note": "(configuration not stated)", "values": [{"measurement": "IC50", "setting": "[4]", "result": "> 20 µM (inactive)"}]}, {"smiles": "S=C(Nc1ccc(Nc2ccccc2)cc1)Nc1ccccn1", "values": [{"measurement": "CC50", "setting": "[5]", "result": "> 40 µM (active)"}, {"measurement": "IC50", "setting": "[6]", "result": "> 66 µM (inactive)"}, {"measurement": "IC50", "setting": "[7]", "result": "> 66 µM (inactive)"}, {"measurement": "AC50", "setting": "INS1", "result": "6.34 µM (active)"}]}, {"smiles": "O=C(Nc1cccc(Cl)c1)Nc1cccc(C(=O)O)c1", "values": [{"measurement": "EC50", "setting": "cells [8]", "result": "> 350 µM (not active)"}, {"measurement": "EC50", "setting": "cells [9]", "result": "7.49 µM (active)"}, {"measurement": "AC50", "setting": "HEK293", "result": "10.5 µM (active)"}]}, {"smiles": "Cc1ccc(S(=O)(=O)Nc2cccc(-c3ccc4nncn4n3)c2)cc1", "values": [{"measurement": "IC50", "setting": "Fatty acid synthase [10]", "result": "15.7 µM (active)"}, {"measurement": "IC50", "setting": "Fatty acid synthase [11]", "result": "21.3 µM (inactive)"}, {"measurement": "IC50", "setting": "[12]", "result": "> 80 µM (inactive)"}]}, {"smiles": "O=C(O)c1ccc(N/N=C/c2cc3cc4c(cc3nc2Cl)OCCO4)cc1", "values": [{"measurement": "AC50", "setting": "HEK293", "result": "1.69 µM (active)"}]}, {"smiles": "Cc1ccc(OCc2cc(C(=O)N(C)Cc3cnc4ccccn34)no2)cc1C", "values": [{"measurement": "CC50", "setting": "[5]", "result": "> 40 µM (active)"}]}, {"smiles": "CCOC(=O)C1=C(CNC(C)(C)CC(C)(C)C)NC(=O)NC1c1cccc([N+](=O)[O-])c1", "note": "(configuration not stated)", "values": [{"measurement": "IC50", "setting": "[13]", "result": "> 50 µM (not active)"}]}, {"smiles": "COc1ccccc1NCC(=O)Nc1cc(S(=O)(=O)N2CCOCC2)ccc1N1CCOCC1", "values": [{"measurement": "IC50", "setting": "cells [14]", "result": "5.88 µM (active)"}]}, {"smiles": "Cc1ccc(S(=O)(=O)NNC(=O)C(=O)NNc2ccccn2)cc1", "values": [{"measurement": "AC50", "setting": "[15]", "result": "0.213 µM (active)"}, {"measurement": "IC50", "setting": "[4]", "result": "> 20 µM (inactive)"}]}, {"smiles": "CCOC(=O)C1CN(S(=O)(=O)c2ccc(C)cc2)C1", "values": [{"measurement": "IC50", "setting": "[13]", "result": "4.65 µM (not active)"}]}, {"smiles": "CC1CCCN(CCCNC(=O)c2ccc3c(c2)N(Cc2cccc(Cl)c2)C(=O)c2ccccc2[S+]3[O-])C1", "note": "(configuration not stated)", "values": [{"measurement": "CC50", "setting": "Vero", "result": "> 25 µM (active)"}]}, {"smiles": "O=C(NN=Cc1ccc(N(CCCl)CCCl)cc1)c1cccnc1", "values": [{"measurement": "AC50", "setting": "HEK293", "result": "1.08 µM (active)"}]}, {"smiles": "CCc1ccc2nc(O)c(C(c3nnnn3Cc3ccc(OC)cc3)N3CCOCC3)cc2c1", "note": "(configuration not stated)", "values": [{"measurement": "AC50", "setting": "[16]", "result": "6.44 µM (active)"}, {"measurement": "AC50", "setting": "[17]", "result": "7.97 µM (active)"}, {"measurement": "AC50", "setting": "[18]", "result": "43.7 µM (active)"}, {"measurement": "AC50", "setting": "[19]", "result": "4.74 µM (active)"}]}, {"smiles": "CC(=O)O[C@H]1C(=O)[C@]2(C)[C@H]([C@H](OC(=O)c3ccccc3)[C@]3(O)C[C@H](OC(=O)[C@H](O)[C@@H](NC(=O)c4ccccc4)c4ccccc4)C(C)=C1C3(C)C)[C@]1(OC(C)=O)CO[C@@H]1C[C@@H]2O", "values": [{"measurement": "IC50", "setting": "[12]", "result": "> 80 µM (inactive)"}]}, {"smiles": "Cc1ncccc1C(=O)N1CCCC(C(=O)c2ccc3c4c(cccc24)CC3)C1", "note": "(configuration not stated)", "values": [{"measurement": "AC50", "setting": "[16]", "result": "8.12 µM (active)"}, {"measurement": "AC50", "setting": "[17]", "result": "20.4 µM (active)"}, {"measurement": "AC50", "setting": "[18]", "result": "8.47 µM (active)"}, {"measurement": "AC50", "setting": "[19]", "result": "7.15 µM (active)"}]}, {"smiles": "C=C(CN(C)C)C(=O)c1ccc(C)cc1C", "values": [{"measurement": "AC50", "setting": "[1]", "result": "18.5 µM (active)"}, {"measurement": "AC50", "setting": "[2]", "result": "0.77 µM (active)"}, {"measurement": "AC50", "setting": "[3]", "result": "5.15 µM (active)"}]}, {"smiles": "CC(C)=CCC/C(C)=C/CNC(=O)C[C@H]1C[C@H](C(=O)N(C(C)C)C(C)C)[C@@]2(C)c3[nH]c4cc(CCC(=O)N(C)C)ccc4c3CCN2C1=O", "values": [{"measurement": "AC50", "setting": "[2]", "result": "2.05 µM (active)"}, {"measurement": "AC50", "setting": "[3]", "result": "11.9 µM (active)"}]}, {"smiles": "O=C1C=C(c2ccc3ncccc3c2)C[C@@H](c2ccc3c(c2)OCO3)C1", "values": [{"measurement": "IC50", "setting": "[12]", "result": "> 80 µM (inactive)"}]}, {"smiles": "COc1cc(C#Cc2c(-c3cncn3C)n(C)c3ccc(-c4cnc(N5CCOCC5)nc4)cc23)cc(OC)c1", "values": [{"measurement": "CC50", "setting": "[5]", "result": "29.3 µM (active)"}]}, {"smiles": "O=C(/C=C/c1ccc(Br)cc1)NC(=S)NNC(=O)c1ccco1", "values": [{"measurement": "EC50", "setting": "[20]", "result": "0.343 µM (active)"}, {"measurement": "EC50", "setting": "Streptococcus", "result": "0.887 µM (active)"}, {"measurement": "CC50", "setting": "Vero", "result": "> 25 µM (active)"}]}]}
